# Source: patent publication US8394641B2, “Method of hydrolyzing an enzymatic substrate” (Advanced Liquid Logic Inc., priority 2009, dated 2013)
# Experiments:
# Assay type in all cases: biochemical
# [1] = target: T1, α-galactosidase (Homo sapiens, UniProt P06280); assay: Fabry assay on bench, substrate hydrolysis with cyclodextrins, QC DBS extracts; details: for effect on hydrolysis of the 4-MU substrate in the Fabry assay: 10, 30, 100 mM tested, effect at 10 mM
# T1 construct: DBS extracts were prepared from quality control (QC) dried blood spot samples; tissue CDC, Atlanta Ga; host or cells: dried blood spot extracts (pooled cord blood / leukoreduced red cells plus serum)
# T1 sequence (P06280 32-429): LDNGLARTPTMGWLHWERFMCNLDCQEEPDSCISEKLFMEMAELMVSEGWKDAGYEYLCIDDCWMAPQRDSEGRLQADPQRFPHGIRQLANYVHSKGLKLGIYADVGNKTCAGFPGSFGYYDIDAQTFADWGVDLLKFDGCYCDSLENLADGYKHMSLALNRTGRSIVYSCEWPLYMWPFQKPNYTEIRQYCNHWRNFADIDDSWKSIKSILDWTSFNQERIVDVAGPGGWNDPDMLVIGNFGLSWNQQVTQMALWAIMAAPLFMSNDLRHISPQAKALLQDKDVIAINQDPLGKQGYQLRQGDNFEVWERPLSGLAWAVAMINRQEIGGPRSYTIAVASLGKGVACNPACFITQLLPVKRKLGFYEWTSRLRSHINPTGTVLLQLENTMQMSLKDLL
# Description: (§1) To evaluate the efficacy of cyclodextrins in enhancing the hydrolysis of enzymatic substrates (4-MU substrates) used in NBS assays, DBS extracts were prepared from quality control (QC) dried blood spot samples (i.e., base pool (BP), low (L), medium (M) and high (H) activity samples). The QC samples were obtained from CDC, Atlanta Ga. The base pool (BP) QC sample was prepared from a pool of leukoreduced human red blood cells that was adjusted with serum to a hematocrit of 50%. The High (H) activity QC sample was prepared from pooled cord blood that was adjusted with serum to a hematocrit of 50%. The medium (M) activity QC sample was prepared by using 50% base pool (BP) and 50% high (H) activity sample. The low (L) activity QC sample was prepared by using 95% base pool (BP) and 5% high (H) activity sample. The BP sample is used as a control for hydrolysis non-specific to white blood cell lysosomal enzymes. The DBS extracts were analyzed using on-bench assay protocols for Fabry, Gaucher, Krabbe, and Pompe diseases. For each assay, on-chip reagent formulations were scaled up to bench volumes. Hydroxypropyl-β-cyclodextrin or methyl-β-cyclodextrin reagent stocks (300 mM) were prepared in appropriate assay buffers. For each reaction, 10 μL of the appropriate substrate was mixed with 10 μL of DBS extract. After an incubation period (20 hrs at 37° C.), 50 μL of stop buffer (0.2 M NaCO3, pH 10.1) was added to the reaction. Fluorescence was read at 360/460 nm at a gain of 75. For each assay, QC samples (BP, L, M and H) were analyzed in duplicate.
# FIGS. 20A and 20B show bar graphs 2000 and 2050 of the effect of hydroxypropyl-β-cyclodextrin and methyl-β-cyclodextrin, respectively, on substrate hydrolysis in a Fabry assay. The 4-MU substrate in the Fabry assay was β-D-galactopyranoside. The concentrations of β-cyclodextrins in the reaction mixture (substrate+DBS extract) were 10 mM, 30 mM and 100 mM.
# To further evaluate the efficacy of lower concentrations of cyclodextrins in enhancing the hydrolysis of 4-MU substrates, Fabry and Gaucher assays were repeated using cyclodextrins concentrations ranging from 1 mM to 25 mM. FIGS. 22A and 22B show bar graphs 2200 and 2250, respectively, of the effect of lower concentrations of hydroxypropyl-β-cyclodextrin and methyl-β-cyclodextrin, respectively, on substrate hydrolysis in a Fabry assay. The 4-MU substrate in the Fabry assay was β-D-galactopyranoside. The concentrations of β-cyclodextrins in the reaction mixture (substrate+DBS extract) were 1, 5, 10, 15, 20, and 25 mM. […] The preferred concentration of methyl-β-cyclodextrin is from about 1 mM to about 20 mM, or from about 5 mM to about 15 mM, or from about 7 mM to about 13 mM, or from about 9 mM to about 11 mM, or from about 9.5 mM to about 11.5 mM.
# [2] = target: T2, acid β-D-glucosidase (Homo sapiens, UniProt P04062); assay: Gaucher assay on bench, substrate hydrolysis with cyclodextrins, QC DBS extracts; set-up: DBS extracts were prepared from quality control (QC) dried blood spot samples; tissue CDC, Atlanta Ga; host or cells: dried blood spot extracts (pooled cord blood / leukoreduced red cells plus serum); details: for effect on fluorescence signal in the Gaucher assay, lower concentrations: 1, 5, 10, 15, 20, 25 mM, one experiment; for effect on hydrolysis of the 4-MU substrate in the Gaucher assay: 10, 30, 100 mM tested, effect at 10 mM, 20 hrs at 37° C.
# T2 sequence (P04062 40-536): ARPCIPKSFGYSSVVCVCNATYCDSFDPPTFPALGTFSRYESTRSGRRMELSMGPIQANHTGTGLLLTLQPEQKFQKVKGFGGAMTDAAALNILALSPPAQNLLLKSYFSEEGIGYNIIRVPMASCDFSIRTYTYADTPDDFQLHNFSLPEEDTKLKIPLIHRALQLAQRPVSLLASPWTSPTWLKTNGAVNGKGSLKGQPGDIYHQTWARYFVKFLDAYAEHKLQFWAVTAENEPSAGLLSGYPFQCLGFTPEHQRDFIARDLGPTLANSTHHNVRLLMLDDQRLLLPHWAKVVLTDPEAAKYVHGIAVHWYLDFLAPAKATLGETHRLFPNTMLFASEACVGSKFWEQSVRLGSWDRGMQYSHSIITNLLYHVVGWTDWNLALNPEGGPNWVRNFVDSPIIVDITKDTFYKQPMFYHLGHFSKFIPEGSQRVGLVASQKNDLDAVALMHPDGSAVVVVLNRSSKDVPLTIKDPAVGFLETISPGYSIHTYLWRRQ
# Description: as §1
# FIGS. 21A and 21B show bar graphs 2100 and 2150 of the effect of hydroxypropyl-β-cyclodextrin and methyl-β-cyclodextrin, respectively, on substrate hydrolysis in a Gaucher assay. The 4-MU substrate in the Gaucher assay was β-D-glucopyranoside. The concentrations of β-cyclodextrins in the reaction mixture (substrate+DBS extract) were 10 mM, 30 mM, and 100 mM.
# FIGS. 23A and 23B show bar graphs 2300 and 2350, respectively, of an experimental result of the effect of lower concentrations of hydroxypropyl-β-cyclodextrin and methyl-β-cyclodextrin, respectively, on substrate hydrolysis in a Gaucher assay. The 4-MU substrate in the Gaucher assay was β-D-glucopyranoside. The concentrations of β-cyclodextrins in the reaction mixture (substrate+DBS extract) were 1, 5, 10, 15, 20, and 25 mM. […] The β-cyclodextrin used may be hydroxypropyl-β-cyclodextrin at a concentration from about 5 mM to about 15 mM, or from about 7 mM to about 13 mM, or from about 9 mM to about 11 mM, or from about 9.5 mM to about 11.5 mM.
# [3] = target: T3, α-glucosidase (Homo sapiens, UniProt P10253); assay: Pompe assay on bench, substrate hydrolysis with cyclodextrins, QC DBS extracts; details: data not shown
# T3 construct: DBS extracts were prepared from quality control (QC) dried blood spot samples; tissue CDC, Atlanta Ga; host or cells: dried blood spot extracts (pooled cord blood / leukoreduced red cells plus serum)
# Description: as §1, with “For each reaction, 10 μL of the appropriate substrate was mixed with 10 μL of DBS extract. After an incubation period (20 hrs at 37° C.), 50 μL of stop buffer (0.2 M NaCO3, pH 10.1) was added to the reaction.” left out, “duplicate. […]” for “duplicate.”
"increase of the QC-H signal in the Fabry assay ([1]; 10 mM, 20 hrs at 37° C.)",effect on hydrolysis of the 4-MU substrate in the Fabry assay ([1]; 20 hrs at 37° C.),"effect on fluorescence signal in the Gaucher assay, lower concentrations [2]",effect on hydrolysis of the 4-MU substrate in the Gaucher assay [2],effect on substrate hydrolysis in a Pompe assay [3],"effect on substrate hydrolysis in a Fabry assay, lower concentrations ([1]; 1, 5, 10, 15, 20, 25 mM)",Substance
37%,increase the hydrolysis,may affect the fluorescence signal,increase the hydrolysis,less effective,,methyl-β-cyclodextrin
,less effective,may affect the fluorescence signal,increase the hydrolysis,less effective,less effective,hydroxypropyl-β-cyclodextrin
